Experimental data taken from patent publication US10189786B2, “Antibacterial compounds” (Duke University, priority 2013, dated 2019).
≈ marks a conversion by molar mass, not a printed value.

Legend:
Format in all cases: cell-based
[1] = tested on: N. gonorrhoeae H041; assay: Disk diffusion assay, N. gonorrhoeae H041; settings: disc 6 mm; for zone of inhibition at 0.2 µg/disc / zone of inhibition at 2 µg/disc / zone of inhibition at 20 µg/disc: Neisseria gonorrhoeae, read-out: diameter of the growth inhibition, H041; for zone of inhibition at 0.2 µg/disc: H041, 0.2 μg per disc; for zone of inhibition at 2 µg/disc: H041, 2.0 μg per disc; for zone of inhibition at 20 µg/disc: H041, 20 μg per disc
Procedure: (§1) An assay was performed on two strains of Acinetobacter Baumannii: antibiotic susceptible strain (Sus. A.b. Isolate), and multidrug-resistant strains (MDR A.b. Isolate). […] Activity is measured as the diameter (in mm) of the growth inhibition.

[2] = tested on: N. gonorrhoeae FA19 (a drug-sensitive strain); assay: Disk diffusion assay, N. gonorrhoeae FA19; settings: disc 6 mm; for zone of inhibition at 2 µg/disc / zone of inhibition at 20 µg/disc / zone of inhibition at 0.2 µg/disc: Neisseria gonorrhoeae, read-out: diameter of the growth inhibition, FA19
Procedure: as §1

[3] = tested on: E. coli W3110; assay: microbe, parasite or virus in culture; settings: wild-type E. coli W3110, 22 hours at 37° C., MTT; for MIC: Escherichia coli, W3110, 22 h
[4] = tested on: P. aeruginosa PAO1; assay: MIC assay, P. aeruginosa PAO1
[5] = tested on: N. gonorrhoeae F89 (high-level cefixime and ceftriaxone resistance); assay: Disk diffusion assay, N. gonorrhoeae F89; settings: disc 6 mm; for zone of inhibition at 0.2 µg/disc / zone of inhibition at 2 µg/disc / zone of inhibition at 20 µg/disc: Neisseria gonorrhoeae, read-out: diameter of the growth inhibition, F89
Procedure: as §1

[6] = tested on: N. gonorrhoeae 35/02 (drug-resistant strain); assay: Disk diffusion assay, N. gonorrhoeae 35/02; settings: disc 6 mm; for zone of inhibition at 0.2 µg/disc / zone of inhibition at 2 µg/disc / zone of inhibition at 20 µg/disc: Neisseria gonorrhoeae, read-out: diameter of the growth inhibition, 35/02
Procedure: as §1

| SMILES | zone of inhibition at 2 µg/disc ([2]; 2.0 μg per disc) [mm] | MIC [3] [mg/L] | zone of inhibition at 20 µg/disc ([2]; 20 μg per disc) [mm] | zone of inhibition at 0.2 µg/disc [1] [mm] | zone of inhibition at 2 µg/disc [1] [mm] | zone of inhibition at 20 µg/disc [1] [mm] | zone of inhibition at 0.2 µg/disc ([2]; 0.2 μg per disc) [mm] | zone of inhibition at 0.2 µg/disc ([5]; 0.2 μg per disc) [mm] | zone of inhibition at 2 µg/disc ([5]; 2.0 μg per disc) [mm] | zone of inhibition at 20 µg/disc ([5]; 20 μg per disc) [mm] | zone of inhibition at 0.2 µg/disc ([6]; 0.2 μg per disc) [mm] | zone of inhibition at 2 µg/disc ([6]; 2.0 μg per disc) [mm] | zone of inhibition at 20 µg/disc ([6]; 20 μg per disc) [mm] | also measured |
| --- | --- | --- | --- | --- | --- | --- | --- | --- | --- | --- | --- | --- | --- | --- |
| CC(NCCCc1ccc(-c2ccccc2)cc1)(C(=O)NO)C(C)(O)C(F)F.Cl (single isomer, unassigned) [Example 134] | – | – | – | – | – | – | – | – | – | – | – | – | – | diameter of the growth inhibition, H041 ([1]; 0.2 μg per disc): 14 mm; diameter of the growth inhibition, H041 ([1]; 2.0 μg per disc): 21 mm; diameter of the growth inhibition, H041 ([1]; 20 μg per disc): 26 mm; diameter of the growth inhibition, FA19 ([2]; 0.2 μg per disc): 14 mm; diameter of the growth inhibition, FA19 ([2]; 2.0 μg per disc): 24 mm; diameter of the growth inhibition, FA19 ([2]; 20 μg per disc): 30 mm; MIC E. coli W3110 [3]: 1.25 mg/L; MIC P. aeruginosa PAO1 [4]: 2.5 mg/L; diameter of the growth inhibition, F89 ([5]; 0.2 μg per disc): 21 mm; diameter of the growth inhibition, F89 ([5]; 2.0 μg per disc): 28 mm; diameter of the growth inhibition, F89 ([5]; 20 μg per disc): 36 mm; diameter of the growth inhibition, 35/02 ([6]; 0.2 μg per disc): 12 mm; diameter of the growth inhibition, 35/02 ([6]; 2.0 μg per disc): 23 mm; diameter of the growth inhibition, 35/02 ([6]; 20 μg per disc): 28 mm |
| CC(NCCc1ccc(-c2ccccc2)cc1)(C(=O)NO)C(C)(O)C(F)F (centres unmarked) [Example 12, 2-(2-(biphenyl-4-yl)ethylamino)-4,4-difluoro-N,3-dihydroxy-2,3-dimethylbutanamide] | < 19 | > 40 | – | – | – | – | – | – | – | – | – | – | – | MIC ([4]; Pseudomonas aeruginosa, PAO1, P. aeruginosa PAO1): > 40 mg/L |
| CC(NCCc1ccc(-c2ccccc2)cc1)(C(=O)NO)C(C)(O)C(F)F.Cl (centres unmarked) [Example 136] | – | – | – | – | – | – | – | – | – | – | – | – | – | MIC E. coli W3110 [3]: >40 mg/L; MIC P. aeruginosa PAO1 [4]: >40 mg/L |
| COc1ccc(-c2ccc(CCCN[C@H](C(=O)NO)[C@](C)(O)C(F)F)cc2)cc1 [Example 137] | – | 12 (≈ 29.4 µM) | – | – | – | – | – | – | – | – | – | – | – | – |
| C[C@@](O)(C(F)F)[C@H](NCCCc1ccc(-c2ccc(CN3CCOCC3)cc2)cc1)C(=O)NO [Example 138] | – | 3 (≈ 6.28 µM) | – | – | – | – | – | – | – | – | – | – | – | – |
| CC(O)(CF)C(C)(NCCCc1ccc(-c2ccccc2)cc1)C(=O)NO.Cl (centres unmarked) [Example 139] | – | – | – | – | – | – | – | – | – | – | – | – | – | diameter of the growth inhibition, H041 ([1]; 0.2 μg per disc): 7 mm; diameter of the growth inhibition, H041 ([1]; 2.0 μg per disc): 14 mm; diameter of the growth inhibition, H041 ([1]; 20 μg per disc): 21 mm; diameter of the growth inhibition, FA19 ([2]; 0.2 μg per disc): 11 mm; diameter of the growth inhibition, FA19 ([2]; 2.0 μg per disc): 20 mm; diameter of the growth inhibition, FA19 ([2]; 20 μg per disc): 24 mm; MIC E. coli W3110 [3]: 50 mg/L; diameter of the growth inhibition, F89 ([5]; 0.2 μg per disc): 11 mm; diameter of the growth inhibition, F89 ([5]; 2.0 μg per disc): 20 mm; diameter of the growth inhibition, F89 ([5]; 20 μg per disc): 28 mm; diameter of the growth inhibition, 35/02 ([6]; 0.2 μg per disc): 7 mm; diameter of the growth inhibition, 35/02 ([6]; 2.0 μg per disc): 15 mm; diameter of the growth inhibition, 35/02 ([6]; 20 μg per disc): 22 mm |
| COc1ccc(-c2ccn(CCCNC(C)(C(=O)NO)C(C)(O)CF)c(=O)c2)cc1 (centres unmarked) [Example 140] | 13 | 100 (≈ 237 µM) | 22 | – | – | – | – | – | – | – | – | – | – | – |
| C[C@@](O)(C(F)F)[C@H](NCc1ccc(-c2ccccc2)cc1O)C(=O)NO [Example 141] | 21 | 50 (≈ 136 µM) | 28 | 0 | 15 | 22 | 12 | 10 | 22 | 30 | 7 | 16 | 25 | – |
| COc1ccc(-c2ccc(CN[C@H](C(=O)NO)[C@](C)(O)C(F)F)cc2)cc1 [Example 142] | 16 | 100 (≈ 263 µM) | 21 | 0 | 8 | 17 | 0 | 0 | 16 | 24 | 0 | 11 | 20 | – |
| CN1CCN(Cc2ccc(-c3ccc(CCCN[C@H](C(=O)NO)[C@](C)(O)C(F)F)cc3)cc2)CC1 [Example 144] | 0 | 50 (≈ 102 µM) | 0 | 0 | 0 | 0 | 0 | 0 | 0 | 0 | 0 | 0 | 0 | – |
| C[C@@](O)(C(F)F)[C@H](NCc1ccc(-c2ccc(OCCN3CCOCC3)cc2)cc1)C(=O)NO [Example 145] | 0 | 25 (≈ 52.1 µM) | 14 | 0 | 7 | 11 | 0 | 0 | 7 | 21 | 0 | 0 | 12 | – |
| COc1cc(-c2ccccc2)ccc1CN[C@H](C(=O)NO)[C@](C)(O)C(F)F [Example 146] | 10 | – | 25 | 0 | 8 | 19 | 0 | 0 | 11 | 27 | 0 | 0 | 16 | – |
| C[C@@](O)(C(F)F)[C@H](NC/C=C/c1ccc(-c2ccccc2)cc1)C(=O)NO [Example 147] | 28 | – | 32 | 14 | 30 | 35 | 22 | 28 | 33 | 38 | 17 | 28 | 34 | – |
| CC(NCCCc1ccc(-c2ccccc2)cc1)(C(=O)NO)C(O)(CF)CF (centres unmarked) [Example 148] | 19 | – | 27 | 9 | 15 | 24 | 12 | 13 | 19 | 27 | 0 | 17 | 24 | – |
| C[C@@](O)(C(F)F)[C@H](NCc1ccc2cc(-c3ccccc3)ccc2c1)C(=O)NO [Example 149] | 22 | – | 26 | 10 | 24 | 27 | 15 | 19 | 24 | 30 | 11 | 22 | 25 | – |
